Experimental data from the NIST ThermoML archive (doi:10.1016/j.jct.2012.08.033).
Numbers after ± are expanded uncertainties.

Test: xn = mol fraction of the nth substance listed
Details: Liquid, vibrating tube

C1CCOC1 [tetrahydrofuran] + O
mass density [kg/m3]
Details	78.5 kPa	100.7 kPa
293.24 K, x2 = 0.3407	907.81 ± 2	907.93 ± 2
293.24 K, x2 = 0.988	995.8 ± 2	995.84 ± 2
293.25 K, x2 = 0.9826	994.97 ± 2	994.99 ± 2
293.25 K, x2 = 0.9921	996.53 ± 2	996.6 ± 2
293.26 K, x2 = 0.0208	888.12 ± 2	888.29 ± 2
293.26 K, x2 = 0.0404	889.02 ± 2	889.18 ± 2
293.26 K, x2 = 0.0872	892.05 ± 2	892.21 ± 2
293.26 K, x2 = 0.9418	990.31 ± 2	990.26 ± 2
293.26 K, x2 = 0.9519	991.46 ± 2	991.41 ± 2
293.26 K, x2 = 0.9573	992.11 ± 2	992.05 ± 2
293.26 K, x2 = 0.9709	993.71 ± 2	993.65 ± 2
293.26 K, x2 = 0.9723	993.83 ± 2	993.77 ± 2
293.27 K, x2 = 0.0269	888.46 ± 2	888.63 ± 2
293.27 K, x2 = 0.0429	889.18 ± 2	889.35 ± 2
293.27 K, x2 = 0.0593	890.14 ± 2	890.31 ± 2
293.27 K, x2 = 0.6092	934.46 ± 2	934.53 ± 2
293.28 K, x2 = 0.8857	981.21 ± 2	981.18 ± 2
298.21 K, x2 = 0.3407	902.44 ± 2	902.65 ± 2
298.22 K, x2 = 0.0872	886.71 ± 2	886.95 ± 2
298.22 K, x2 = 0.988	994.42 ± 2	994.44 ± 2
298.22 K, x2 = 0.9921	995.23 ± 2	995.24 ± 2
298.23 K, x2 = 0.0269	883.01 ± 2	883.22 ± 2
298.23 K, x2 = 0.9418	987.77 ± 2	987.8 ± 2
298.23 K, x2 = 0.9723	992.08 ± 2	992.11 ± 2
298.23 K, x2 = 0.9826	993.47 ± 2	993.49 ± 2
298.24 K, x2 = 0.0208	882.73 ± 2	882.93 ± 2
298.24 K, x2 = 0.0593	884.65 ± 2	884.9 ± 2
298.24 K, x2 = 0.9573	989.99 ± 2	990.02 ± 2
298.24 K, x2 = 0.9709	991.93 ± 2	991.95 ± 2
298.25 K, x2 = 0.0429	883.9 ± 2	883.99 ± 2
298.25 K, x2 = 0.6092	929.43 ± 2	929.58 ± 2
298.25 K, x2 = 0.9519	989.15 ± 2	989.18 ± 2
298.26 K, x2 = 0.8857	977.6 ± 2	977.65 ± 2
298.29 K, x2 = 0.0404	883.74 ± 2	883.83 ± 2
303.07 K, x2 = 0.3407	897.21 ± 2	897.4 ± 2
303.09 K, x2 = 0.9418	985.17 ± 2	985.19 ± 2
303.1 K, x2 = 0.0269	877.63 ± 2	877.86 ± 2
303.1 K, x2 = 0.0872	881.49 ± 2	881.71 ± 2
303.1 K, x2 = 0.9519	986.82 ± 2	986.81 ± 2
303.1 K, x2 = 0.988	993 ± 2	992.98 ± 2
303.1 K, x2 = 0.9921	993.8 ± 2	993.78 ± 2
303.11 K, x2 = 0.0404	878.23 ± 2	–
303.11 K, x2 = 0.0593	879.35 ± 2	–
303.11 K, x2 = 0.9573	987.79 ± 2	–
